Assay: Evaluation of wet heat resistance of optical film (change of in-plane retardation Re)
Format: physicochemical
Conditions: HB(C6F5)4 used instead of the additive B-1 of Example 1
Description: The optical film manufactured in each of Examples and Comparative Examples was left to stand in an environment at a temperature of 65° C. and a humidity of 90% for 500 hours, and the in-plane retardation Re of the optical film before being left to stand in a wet heat environment (initial Re1) and the in-plane retardation Re of the optical film after being left to stand in a wet heat environment (Re1 after standing) were compared to each other to calculate a Re change rate 1.
Furthermore, the Re change rate 1 is calculated by the following equation.
Re change rate 1(%)={(Initial Re1−Re1 after standing)/Initial Re1}×100
Furthermore, a comparative optical film was manufactured without use of an additive of each of Examples and Comparative Examples, and according to the same procedure as above, the in-plane retardation Re of the comparative optical film before being left to stand in a wet heat environment (initial Re2) and the in-plane retardation Re of the comparative optical film after being left to stand in a wet heat environment (Re2 after standing) were compared to each other to calculate a Re change rate 2.
Furthermore, the Re change rate 2 is calculated by the following equation. […]
A difference between the Re change rate 2 and the Re change rate 1 (Re change rate 2-Re change rate 1) was evaluated according to the following standard. […]

Fc1c(F)c(F)c([B-](c2c(F)c(F)c(F)c(F)c2F)(c2c(F)c(F)c(F)c(F)c2F)c2c(F)c(F)c(F)c(F)c2F)c(F)c1F.[H+] [HB(C6F5)4]
Wet heat resistance (in words): the same extent of effects as in Example 1

Reference: patent publication US20190271885A1, “OPTICAL FILM AND METHOD FOR PRODUCING THE SAME, POLARIZING PLATE, AND IMAGE DISPLAY DEVICE” (FUJIFILM Corporation, priority 2016, published 2019)
